{"source": "paper PMC9403976", "about": "“Elucidating the path to Plasmodium prolyl-tRNA synthetase inhibitors that overcome halofuginone resistance” (Nature Communications, 2022)", "key": {"[1]": {"system": "P. falciparum Dd2-2D4", "assay": "P. falciparum asexual blood stage (ABS) growth assay, SYBR Green, 72 h, wild-type parasites", "format": "cell-based, Plasmodium falciparum", "settings": "Plasmodium falciparum, DD2; SI Fig 16b; values on -log scale; read-out: ABS - Dd2-2D4 (converted)"}, "[2]": {"biological_target": "T1, PfcProRS (Plasmodium falciparum, UniProt Q8I5R7)", "T1 construct": "made in house; host or cells: E. coli SoluBL-21", "T1 sequence (Q8I5R7 249-746)": "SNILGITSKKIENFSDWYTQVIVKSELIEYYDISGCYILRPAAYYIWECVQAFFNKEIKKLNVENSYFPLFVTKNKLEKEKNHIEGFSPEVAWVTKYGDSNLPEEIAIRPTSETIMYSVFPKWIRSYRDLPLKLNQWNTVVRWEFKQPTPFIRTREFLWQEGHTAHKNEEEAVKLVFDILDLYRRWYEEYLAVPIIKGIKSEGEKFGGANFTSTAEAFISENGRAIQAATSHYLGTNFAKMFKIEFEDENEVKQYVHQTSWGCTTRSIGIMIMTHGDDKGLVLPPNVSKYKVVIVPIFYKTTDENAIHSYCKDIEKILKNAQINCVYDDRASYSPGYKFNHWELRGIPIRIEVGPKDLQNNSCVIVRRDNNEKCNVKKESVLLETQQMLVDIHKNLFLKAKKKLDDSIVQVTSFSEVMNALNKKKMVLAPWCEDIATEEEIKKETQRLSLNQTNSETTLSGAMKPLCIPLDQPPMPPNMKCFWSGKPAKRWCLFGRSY", "format": "binding", "settings": "single replicates"}, "[3]": {"biological_target": "HsProRS (Homo sapiens, UniProt P07814)", "sequence (P07814 996-1512)": "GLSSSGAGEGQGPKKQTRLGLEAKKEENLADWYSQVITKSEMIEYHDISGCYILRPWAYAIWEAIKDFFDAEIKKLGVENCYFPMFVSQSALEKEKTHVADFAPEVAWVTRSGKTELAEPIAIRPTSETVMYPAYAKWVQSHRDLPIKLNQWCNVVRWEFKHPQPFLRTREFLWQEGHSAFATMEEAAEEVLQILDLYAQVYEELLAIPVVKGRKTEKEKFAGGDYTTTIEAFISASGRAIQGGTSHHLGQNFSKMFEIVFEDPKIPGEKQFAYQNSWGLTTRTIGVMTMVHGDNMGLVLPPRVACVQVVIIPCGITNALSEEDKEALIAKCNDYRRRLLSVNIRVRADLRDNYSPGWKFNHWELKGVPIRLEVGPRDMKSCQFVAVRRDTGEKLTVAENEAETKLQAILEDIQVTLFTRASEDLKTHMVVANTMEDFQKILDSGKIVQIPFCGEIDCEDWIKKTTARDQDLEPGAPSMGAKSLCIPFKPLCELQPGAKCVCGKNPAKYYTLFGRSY", "assay": "TR-FRET ligand displacement assay with tracer MAT379 (CoraFluor-1-Halo and anti-His6 antibody formats)", "format": "binding", "design": "made in house; host or cells: E. coli SoluBL-21", "settings": "for TR-FRET dose-response, normalized signal (SI Fig 11): individual replicates"}}, "note": "Several values for one entry are separate records, joined by “and”; a condition that tells them apart may be missing. Identical values can stand only once. Like-named read-outs stand apart in the source and are kept apart here."}
{"smiles": "NC(=O)Nc1nccnc1C(=O)NC1Cc2ccccc2C1", "note": "[compound 23]", "values": [{"measurement": "EC50", "setting": "[1]", "result": 12.1, "unit": "µM"}, {"measurement": "dose-response signal (normalized), SI Fig 8", "setting": "[2]; Log[inhibitor] (M) -5.000", "result": "9.53E-01 and 9.58E-01 and 9.22E-01"}, {"measurement": "dose-response signal (normalized), SI Fig 8", "setting": "[2]; Log[inhibitor] (M) -5.301", "result": "9.58E-01 and 1.12E+00 and 1.10E+00"}, {"measurement": "dose-response signal (normalized), SI Fig 8", "setting": "[2]; Log[inhibitor] (M) -5.601", "result": "1.05E+00 and 1.01E+00 and 9.67E-01"}, {"measurement": "dose-response signal (normalized), SI Fig 8", "setting": "[2]; Log[inhibitor] (M) -5.904", "result": "9.75E-01 and 1.01E+00 and 9.11E-01"}, {"measurement": "dose-response signal (normalized), SI Fig 8", "setting": "[2]; Log[inhibitor] (M) -6.208", "result": "1.13E+00 and 1.21E+00 and 1.04E+00"}, {"measurement": "dose-response signal (normalized), SI Fig 8", "setting": "[2]; Log[inhibitor] (M) -6.509", "result": "1.02E+00 and 1.09E+00 and 1.04E+00"}, {"measurement": "dose-response signal (normalized), SI Fig 8", "setting": "[2]; Log[inhibitor] (M) -6.796", "result": "1.08E+00 and 1.02E+00 and 1.06E+00"}, {"measurement": "dose-response signal (normalized), SI Fig 8", "setting": "[2]; Log[inhibitor] (M) -7.108", "result": "9.85E-01 and 1.02E+00 and 9.97E-01"}, {"measurement": "dose-response signal (normalized), SI Fig 8", "setting": "[2]; Log[inhibitor] (M) -7.409", "result": "9.53E-01 and 1.06E+00 and 1.07E+00"}, {"measurement": "dose-response signal (normalized), SI Fig 8", "setting": "[2]; Log[inhibitor] (M) -7.710", "result": "9.44E-01 and 1.06E+00 and 1.08E+00"}, {"measurement": "dose-response signal (normalized), SI Fig 8", "setting": "[2]; Log[inhibitor] (M) -8.000", "result": "9.87E-01 and 9.72E-01 and 1.16E+00"}, {"measurement": "dose-response signal (normalized), SI Fig 8", "setting": "[2]; Log[inhibitor] (M) -8.301", "result": "1.10E+00 and 1.12E+00 and 1.02E+00"}, {"measurement": "dose-response signal (normalized), SI Fig 8", "setting": "[2]; Log[inhibitor] (M) -8.602", "result": "9.87E-01 and 1.09E+00 and 1.12E+00"}, {"measurement": "dose-response signal (normalized), SI Fig 8", "setting": "[2]; Log[inhibitor] (M) -9.000", "result": "1.08E+00 and 9.51E-01 and 1.17E+00"}, {"measurement": "dose-response signal (normalized), SI Fig 8", "setting": "[2]; Log[inhibitor] (M) -9.301", "result": "9.82E-01 and 1.20E+00 and 1.04E+00"}, {"measurement": "IC50", "setting": "[3]", "result": "> 10", "unit": "µM"}, {"measurement": "HsProRS % signal at 10 μM, + 100 μM proline", "setting": "[3]; + 100 μM proline, 10 μM", "result": 78.4, "unit": "%"}, {"measurement": "normalized TR-FRET ligand displacement signal, dose-response replicates (SI Fig 6)", "setting": "[3]; Log[inhibitor] (M) -5.000", "result": "9.23E-01 and 9.68E-01 and 8.88E-01"}, {"measurement": "TR-FRET dose-response, normalized signal (SI Fig 11)", "setting": "[3]; Log[inhibitor] (M) -5.000", "result": "8.87E-01 and 8.66E-01 and 9.17E-01"}, {"measurement": "normalized TR-FRET ligand displacement signal, dose-response replicates (SI Fig 6)", "setting": "[3]; Log[inhibitor] (M) -5.301", "result": "9.33E-01 (2×) and 1.11E+00"}, {"measurement": "TR-FRET dose-response, normalized signal (SI Fig 11)", "setting": "[3]; Log[inhibitor] (M) -5.301", "result": "9.05E-01 and 8.98E-01 and 9.19E-01"}, {"measurement": "normalized TR-FRET ligand displacement signal, dose-response replicates (SI Fig 6)", "setting": "[3]; Log[inhibitor] (M) -5.601", "result": "9.64E-01 and 1.03E+00 and 9.59E-01"}, {"measurement": "TR-FRET dose-response, normalized signal (SI Fig 11)", "setting": "[3]; Log[inhibitor] (M) -5.601", "result": "9.98E-01 and 9.77E-01 and 1.05E+00"}, {"measurement": "normalized TR-FRET ligand displacement signal, dose-response replicates (SI Fig 6)", "setting": "[3]; Log[inhibitor] (M) -5.904", "result": "1.09E+00 and 1.01E+00 and 9.81E-01"}, {"measurement": "TR-FRET dose-response, normalized signal (SI Fig 11)", "setting": "[3]; Log[inhibitor] (M) -5.904", "result": "1.00E+00 and 9.89E-01 and 1.01E+00"}, {"measurement": "normalized TR-FRET ligand displacement signal, dose-response replicates (SI Fig 6)", "setting": "[3]; Log[inhibitor] (M) -6.208", "result": "9.87E-01 and 1.09E+00 and 1.03E+00"}, {"measurement": "TR-FRET dose-response, normalized signal (SI Fig 11)", "setting": "[3]; Log[inhibitor] (M) -6.208", "result": "9.53E-01 and 1.02E+00 and 9.38E-01"}, {"measurement": "normalized TR-FRET ligand displacement signal, dose-response replicates (SI Fig 6)", "setting": "[3]; Log[inhibitor] (M) -6.509", "result": "9.55E-01 and 1.02E+00 and 8.65E-01"}, {"measurement": "TR-FRET dose-response, normalized signal (SI Fig 11)", "setting": "[3]; Log[inhibitor] (M) -6.509", "result": "1.01E+00 and 1.02E+00 and 9.66E-01"}, {"measurement": "normalized TR-FRET ligand displacement signal, dose-response replicates (SI Fig 6)", "setting": "[3]; Log[inhibitor] (M) -6.796", "result": "1.06E+00 and 9.70E-01 and 9.00E-01"}, {"measurement": "TR-FRET dose-response, normalized signal (SI Fig 11)", "setting": "[3]; Log[inhibitor] (M) -6.796", "result": "1.06E+00 and 1.02E+00 and 1.01E+00"}, {"measurement": "normalized TR-FRET ligand displacement signal, dose-response replicates (SI Fig 6)", "setting": "[3]; Log[inhibitor] (M) -7.108", "result": "9.62E-01 and 9.53E-01 and 1.03E+00"}, {"measurement": "TR-FRET dose-response, normalized signal (SI Fig 11)", "setting": "[3]; Log[inhibitor] (M) -7.108", "result": "9.79E-01 and 1.00E+00 and 1.02E+00"}, {"measurement": "normalized TR-FRET ligand displacement signal, dose-response replicates (SI Fig 6)", "setting": "[3]; Log[inhibitor] (M) -7.409", "result": "9.73E-01 and 9.58E-01 and 1.07E+00"}, {"measurement": "TR-FRET dose-response, normalized signal (SI Fig 11)", "setting": "[3]; Log[inhibitor] (M) -7.409", "result": "1.02E+00 (2×) and 1.04E+00"}, {"measurement": "normalized TR-FRET ligand displacement signal, dose-response replicates (SI Fig 6)", "setting": "[3]; Log[inhibitor] (M) -7.710", "result": "1.04E+00 and 9.48E-01 and 1.10E+00"}, {"measurement": "TR-FRET dose-response, normalized signal (SI Fig 11)", "setting": "[3]; Log[inhibitor] (M) -7.710", "result": "1.01E+00 and 1.04E+00 and 9.76E-01"}, {"measurement": "normalized TR-FRET ligand displacement signal, dose-response replicates (SI Fig 6)", "setting": "[3]; Log[inhibitor] (M) -8.000", "result": "1.00E+00 (2×) and 1.06E+00"}, {"measurement": "TR-FRET dose-response, normalized signal (SI Fig 11)", "setting": "[3]; Log[inhibitor] (M) -8.000", "result": "9.60E-01 and 1.00E+00 (2×)"}, {"measurement": "normalized TR-FRET ligand displacement signal, dose-response replicates (SI Fig 6)", "setting": "[3]; Log[inhibitor] (M) -8.301", "result": "9.32E-01 and 1.07E+00 and 9.64E-01"}, {"measurement": "TR-FRET dose-response, normalized signal (SI Fig 11)", "setting": "[3]; Log[inhibitor] (M) -8.301", "result": "1.00E+00 and 9.88E-01 and 1.08E+00"}, {"measurement": "normalized TR-FRET ligand displacement signal, dose-response replicates (SI Fig 6)", "setting": "[3]; Log[inhibitor] (M) -8.602", "result": "1.06E+00 and 1.00E+00 and 1.07E+00"}, {"measurement": "TR-FRET dose-response, normalized signal (SI Fig 11)", "setting": "[3]; Log[inhibitor] (M) -8.602", "result": "1.00E+00 and 1.01E+00 and 9.76E-01"}, {"measurement": "normalized TR-FRET ligand displacement signal, dose-response replicates (SI Fig 6)", "setting": "[3]; Log[inhibitor] (M) -9.000", "result": "1.03E+00 (2×) and 9.79E-01"}, {"measurement": "TR-FRET dose-response, normalized signal (SI Fig 11)", "setting": "[3]; Log[inhibitor] (M) -9.000", "result": "1.00E+00 and 9.57E-01 and 9.73E-01"}, {"measurement": "normalized TR-FRET ligand displacement signal, dose-response replicates (SI Fig 6)", "setting": "[3]; Log[inhibitor] (M) -9.301", "result": "1.02E+00 (2×) and 9.65E-01"}, {"measurement": "TR-FRET dose-response, normalized signal (SI Fig 11)", "setting": "[3]; Log[inhibitor] (M) -9.301", "result": "9.83E-01 and 9.76E-01 and 9.75E-01"}, {"measurement": "HsProRS % signal at 10 μM", "setting": "[3]; no added proline/ATP (-), 10 μM", "result": 89.0, "unit": "%"}, {"measurement": "IC50", "setting": "[3]; read-out: HsProRS IC50 + 100 μM proline, + 100 μM proline", "result": "> 10", "unit": "µM"}]}
